Test results published in PMC8537746, “New Pyridone-Based Derivatives as Cannabinoid Receptor Type 2 Agonists” (International Journal of Molecular Sciences, 2021).

Assays:
CB2 = target: CB2; parameters: method as in PMID 11597467, PMID 23623258, PMID 23395112, PMID 21702498, PMID 17004710; settings: Figure 1; cited from earlier work
HL-60 cells = assay: Neutral red uptake cell viability assay, HL-60; settings: Homo sapiens, HL-60, 72 h, read-out: IC50 HL-60
Method: (§1) Two different cell lines were used: HepG2 as a model of hepatic tissue; and HL-60 cells as a model of blood cells. Low levels of expression of CBR exists in normal liver however, several pathological conditions have shown high upregulation of hepatic CB2R [28].
(§2) Cell lines were grown in culture media supplemented with 10% fetal bovine serum (FBS), 100 U/mL of penicillin, 100 μg/mL of streptomycin and 1% of non-essential aminoacids. Cells between passage 5 to 10 were used in experiments. Dulbecco’s Modified Eagle Medium (DMEM) was used for HepG2 cells and Roswell Park Memorial Institute (RPMI) was used for HL-60 cells. […] All cellular lines used were provided by Dr. Mario Faúndez, Laboratory of Molecular Pharmacology, Faculty of Chemistry and Pharmacy, Pontificia Universidad Católica de Chile.
(§3) The effect of compounds in cell viability was determined by Neutral Red uptake assay. Cells were seeded in 100 μL of media at a density of 10^4 cells/well in 96-well microtiter plates. Solutions of compounds were previously prepared in DMSO and 1 μL of the corresponding solution was added to each well. The final volume of each well was adjusted to 200 μL. After 72 h of incubation, culture media was removed and 100 μL of 10 μg/mL neutral red solution prepared in culture media was added to each well and incubated for 3 h. Then, media was aspirated, the plate was washed three times with PBS 1X and 100 μL of neutral red distain solution (50:49:1 ethanol:water:glacial acetic acid) was added. The plate was placed for 15 min in a shaker and fluorescence was measured using Cytation 5 apparatus (Biotek, Winooski, VT, USA) at 530/645 nm excitation/emission wavelengths.

[1] = target: T1, human cannabinoid receptor type II (CB2R) (Homo sapiens, UniProt P34972); assay: Human CB2R cAMP agonist cellular functional assay (Eurofins Cerep); format: cell-based; settings: for % CB2R Agonist Response: 10 µM, CHO cells expressing hCB2R, percentage relative to control (100 nM WIN55212-2), rounded mean of two assays; for EC50: EC50, intracellular cAMP, CHO-hCB2R
T1 construct: host or cells: CHO cells
T1 sequence (P34972 whole entry): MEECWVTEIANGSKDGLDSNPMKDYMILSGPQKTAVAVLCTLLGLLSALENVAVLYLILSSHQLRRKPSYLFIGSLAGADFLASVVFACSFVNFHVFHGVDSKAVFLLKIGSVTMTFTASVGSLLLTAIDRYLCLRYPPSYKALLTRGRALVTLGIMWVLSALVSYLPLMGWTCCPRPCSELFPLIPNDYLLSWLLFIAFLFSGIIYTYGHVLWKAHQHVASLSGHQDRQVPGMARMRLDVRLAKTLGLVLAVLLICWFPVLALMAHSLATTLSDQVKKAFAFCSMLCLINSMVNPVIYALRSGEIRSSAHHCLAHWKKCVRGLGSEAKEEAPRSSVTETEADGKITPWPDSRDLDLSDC
Method: Functional evaluation was carried out by Eurofins Cerep service assay: CB2 Human Cannabinoid GPCR Cell Based Agonist cAMP Assay. CHO cells stably expressing hCB2R (Eurofins Cerep) are suspended in HBSS buffer (Invitrogen) complemented with 20 mM HEPES (pH 7.4), then distributed in microplates at a density of 7.5 × 10^3 cells/well in the presence of either of the following: HBSS (basal control), the reference agonist at 100 nM (stimulated control) or various concentrations (EC50 determination), or the test compounds. Thereafter, the adenylyl cyclase activator NKH 477 is added at a final concentration of 3 μM. Following 10 min incubation at 37 °C, the cells are lysed, and the fluorescence acceptor (D2-labeled cAMP) and fluorescence donor (anti-cAMP antibody labeled with europium cryptate) are added. After 60 min at room temperature, the fluorescence transfer is measured at λex = 337 nm and λem = 620 and 665 nm using a microplate reader (Envison, Perkin Elmer). The cAMP concentration is determined by dividing the signal measured at 665 nm by that measured at 620 nm (ratio). The results are expressed as a percent of the control response to 100 nM WIN55212-2. The standard reference agonist is WIN 55212-2, which is tested in each experiment at several concentrations to generate a concentration-response curve from which its EC50 value is calculated.

HepG2 cells = assay: Neutral red uptake cell viability assay, HepG2; settings: for IC50: Homo sapiens, HepG2, 72 h, read-out: IC50 HepG2
Method: as §1, §2, §3

[2] = Neutral red uptake cell viability assay, HL-60; settings: human
Method: as §1, §2, §3

melting point | % CB2R Agonist Response [1] | Compound | also measured
 |  | CCOC(=O)CC#N [Compound 1] | Ki (CB2): 0.2 nM
 |  | N#CCC(=O)NN [Compound 2] | Ki (CB2): 14 nM
119 to 121 °C |  | Cc1cc(C)n(C(=O)CC#N)n1 [Compound 3] | Ki (CB2): 0.6 nM
 |  | COc1ccc2c(=O)c(C(=O)NC3CCCCC3)cn(Cc3ccc(F)cc3)c2n1 [Compound 4] | Ki (CB2): 11 nM
 |  | O=C(NC1CCCCCC1)c1cn2c3c(cccc3c1=O)OCC2c1ccccc1 (stereo not drawn) [Compound 5] | Ki (CB2): 0.81 nM
163 to 165 °C |  | Cc1cc(C)n(-c2ccccc2)c(=O)c1C(=O)Nc1nc2ccccc2s1 [Compound 7a, N-(benzo[d]thiazol-2-yl)-4,6-dimethyl-2-oxo-1-phenyl-1,2-dihydropyridine-3-carboxamide] | 
177 to 179 °C | 8% | Cc1cc(C)n(-c2ccccc2)c(=O)c1C(=O)Nc1nc2ccccc2[nH]1 [Compound 7b, N-(1H-benzo[d]imidazol-2-yl)-4,6-dimethyl-2-oxo-1-phenyl-1,2-dihydropyridine-3-carboxamide] | IC50 (HL-60 cells): > 100000 nM; IC50 (HepG2 cells): > 200000 nM
228 to 230 °C | 13% | Cc1cc(C)n(-c2ccccc2)c(=O)c1C(=O)Nc1nc2ccccc2o1 [Compound 7c, N-(benzo[d]oxazol-2-yl)-4,6-dimethyl-2-oxo-1-phenyl-1,2-dihydropyridine-3-carboxamide] | 
 | 0% | Cc1ccc(-n2c(C)cc(C)c(C(=O)Nc3nc4ccccc4o3)c2=O)cc1 [Compound 7d, N-(benzo[d]oxazol-2-yl)-4,6-dimethyl-2-oxo-1-(4-methylphenyl)-1,2-dihydropyridine-3-carboxamide] | 
198 to 200 °C | 0% | Cc1ccc(-n2c(C)cc(C)c(C(=O)Nc3nc4ccccc4[nH]3)c2=O)cc1 [Compound 7e, N-(1H-benzo[d]imidazol-2-yl)-4,6-dimethyl-2-oxo-1-(4-methylphenyl)-1,2-dihydropyridine-3-carboxamide] | 
176 to 178 °C | 13% | Cc1cc(C)n(-c2ccc(O)cc2)c(=O)c1C(=O)Nc1nc2ccccc2[nH]1 [Compound 7f, N-(1H-benzo[d]imidazol-2-yl)-1-(4-hydroxyphenyl)-4,6-dimethyl-2-oxo-1,2-dihydropyridine-3-carboxamide] | 
139 to 140 °C | 12% | Cc1cc(C)n(-c2ccccc2)c(=O)c1C(=O)NC1CCCCC1 [Compound 8a, N-cyclohexyl-4,6-dimethyl-2-oxo-1-phenyl-1,2-dihydropyridine-3-carboxamide] | 
138 to 140 °C |  | Cc1cc(C)n(-c2ccccc2)c(=O)c1C(=O)NC1CCCCCC1 [Compound 8b, N-cycloheptyl-4,6-dimethyl-2-oxo-1-phenyl-1,2-dihydropyridine-3-carboxamide] | IC50 (HL-60 cells): > 100000 nM; IC50 (HepG2 cells): > 200000 nM
164 to 165 °C |  | Cc1cc(C)n(-c2ccccc2)c(=O)c1C(=O)NC12CC3CC(CC(C3)C1)C2 [Compound 8c, N-(adamantan-1-yl)-4,6-dimethyl-2-oxo-1-phenyl-1,2-dihydropyridine-3-carboxamide] | IC50 (HL-60 cells): > 100000 nM; IC50 (HepG2 cells): > 200000 nM
238 to 240 °C | 0% | Cc1ccc(-n2c(C)cc(C)c(C(=O)NC3CCCCCC3)c2=O)cc1 [Compound 8e, N-cycloheptyl-4,6-dimethyl-2-oxo-(4-methylphenyl)-1,2-dihydropyridine-3-carboxamide] | 
232 to 233 °C | 0% | Cc1cc(C)n(-c2ccc(O)cc2)c(=O)c1C(=O)NC1CCCCCC1 [Compound 8f, N-cycloheptyl-1-(4-hydroxyphenyl)-4,6-dimethyl-2-oxo-1,2-dihydropyridine-3-carboxamide] | 
139 to 140 °C | 4% | Cc1cc(C)n(-c2ccc(O)cc2)c(=O)c1C(=O)NC1CCCCC1 [Compound 8g, N-cyclohexyl-1-(4-hydroxyphenyl)-4,6-dimethyl-2-oxo-1,2-dihydropyridine-3-carboxamide] | 

Compound | melting point | % CB2R Agonist Response [1] | also measured
Cc1ccc(-n2c(C)cc(C)c(C(=O)NC34CC5CC(CC(C5)C3)C4)c2=O)cc1 [Compound 8d, N-(adamantan-1-yl)-4,6-dimethyl-2-oxo-1-(4-methylphenyl)-1,2-dihydropyridine-3-carboxamide] | 154 to 155 °C |  | viability at 72 h, 200 µM [2]: 10%; IC50 (HL-60 cells): > 100000 nM; EC50 [1]: 112 nM; EC50 ([1]; n = 3): 110 nM; IC50 (HepG2 cells): > 200000 nM; effect on cell viability in HepG2 cells (HepG2 cells; concentrations as high as 200 μM, compared to control): did not show significant effect on cell viability
